Laboratory results taken from ChEMBL document CHEMBL1201862, “PubChem BioAssay data set” (2004).
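Test compounds were applied to cells in 96-well plates for 48 hours at 5 doses. GI50 = concentration required for 50% inhibition of growth.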 The source made the active and inactive calls. Rule as the data show it: active = GI50 up to about 1.1 µM and inactive = higher.

Columns and labels:
Experiment in all cases: NCI tumour cell line growth inhibition, 48 h
HCC 2998 = test system: HCC 2998
CAKI-1 = test system: CAKI-1
RXF 393 = test system: RXF 393
RPMI-8226 = test system: RPMI-8226
BT-549 = test system: BT-549
SK-OV-3 = test system: SK-OV-3
HL-60 = test system: HL-60
K562 = test system: K562
HCT-15 = test system: HCT-15
KM12 = test system: KM12
UO-31 = test system: UO-31
PC-3 = test system: PC-3
SK-MEL-5 = test system: SK-MEL-5
A498 = test system: A498
M14 = test system: M14
Hs-578T = test system: Hs-578T
OVCAR-4 = test system: OVCAR-4
786-0 = test system: 786-0
MCF7 = test system: MCF7
NCI-H522 = test system: NCI-H522

| Structure (SMILES) | GI50 (HCC 2998) | GI50 (CAKI-1) | GI50 (RXF 393) | GI50 (RPMI-8226) | GI50 (BT-549) | GI50 (SK-OV-3) | GI50 (HL-60) | GI50 (K562) | GI50 (HCT-15) [µM] | GI50 (KM12) | GI50 (UO-31) | GI50 (PC-3) | GI50 (SK-MEL-5) | GI50 (A498) | GI50 (M14) | GI50 (Hs-578T) | GI50 (OVCAR-4) | GI50 (786-0) | GI50 (MCF7) | GI50 (NCI-H522) |
| --- | --- | --- | --- | --- | --- | --- | --- | --- | --- | --- | --- | --- | --- | --- | --- | --- | --- | --- | --- | --- |
| COc1cccc(-c2cc(O)c3cc(OC)ccc3n2)c1 | 0.291 µM (active) | 0.475 µM (active) | 0.199 µM (active) | 0.34 µM (active) | 0.392 µM (active) | 0.208 µM (active) | 0.0791 µM (active) | 0.128 µM (active) | 0.366 | 0.396 µM (active) | 0.426 µM (active) | 0.338 µM (active) | 0.182 µM (active) | 0.0158 µM (active) | 0.235 µM (active) | 0.24 µM (active) | 1.71 µM (inactive) | 0.376 µM (active) | 0.364 µM (active) | – |
| CSc1ccn(C2CC(F)C(CO)O2)c(=O)n1 (stereo unspecified) | > 100 µM (inactive) | > 100 µM (inactive) | > 100 µM (inactive) | – | > 100 µM (inactive) | > 100 µM (inactive) | > 100 µM (inactive) | > 100 µM (inactive) | > 100 | > 100 µM (inactive) | > 100 µM (inactive) | > 100 µM (inactive) | > 100 µM (inactive) | > 100 µM (inactive) | > 100 µM (inactive) | > 100 µM (inactive) | > 100 µM (inactive) | > 100 µM (inactive) | > 100 µM (inactive) | > 100 µM (inactive) |
| N=C(N)NS(=O)(=O)c1ccc(N/N=C2/CCOC2=O)cc1 | > 100 µM (inactive) | > 100 µM (inactive) | > 100 µM (inactive) | > 100 µM (inactive) | > 100 µM (inactive) | 40.6 µM (inactive) | > 100 µM (inactive) | 45.3 µM (inactive) | > 100 | > 100 µM (inactive) | > 100 µM (inactive) | 80.4 µM (inactive) | > 100 µM (inactive) | > 100 µM (inactive) | > 100 µM (inactive) | 57.8 µM (inactive) | > 100 µM (inactive) | > 100 µM (inactive) | > 100 µM (inactive) | – |
| Nc1ccc2nc(-c3cccc(C(F)(F)F)c3)cc(O)c2c1 | 60.1 µM (inactive) | 29.6 µM (inactive) | – | 38.5 µM (inactive) | 23.6 µM (inactive) | 44.8 µM (inactive) | – | – | 34.8 | 36.2 µM (inactive) | 37.4 µM (inactive) | 23.8 µM (inactive) | 22.9 µM (inactive) | 29.1 µM (inactive) | 59.6 µM (inactive) | 28.9 µM (inactive) | – | 44.7 µM (inactive) | 28.2 µM (inactive) | 61.8 µM (inactive) |
| COc1ccc(-c2nnc(CCCCCCCCc3nnc(-c4ccc(OC)cc4)n3N)n2N)cc1 | > 100 µM (inactive) | > 100 µM (inactive) | – | > 100 µM (inactive) | 58.5 µM (inactive) | > 56.2 µM (inactive) | > 100 µM (inactive) | > 100 µM (inactive) | > 100 | > 100 µM (inactive) | > 100 µM (inactive) | > 100 µM (inactive) | > 100 µM (inactive) | > 65.3 µM (inactive) | > 100 µM (inactive) | > 59 µM (inactive) | > 100 µM (inactive) | > 31.6 µM (inactive) | > 100 µM (inactive) | > 56.5 µM (inactive) |
| Cc1ccc2c(c1)-c1c(C#N)c(N)nc(-c3ccccc3)c1CCS2(=O)=O | 8.13 µM (inactive) | 10.5 µM (inactive) | – | 4.56 µM (inactive) | 12.1 µM (inactive) | 5.53 µM (inactive) | 0.204 µM (active) | 1.97 µM (inactive) | 4.54 | 4.85 µM (inactive) | 13.4 µM (inactive) | 13.4 µM (inactive) | 3.03 µM (inactive) | 8.71 µM (inactive) | 4.54 µM (inactive) | 5.98 µM (inactive) | 52 µM (inactive) | 6.38 µM (inactive) | 4.48 µM (inactive) | 1.12 µM (inactive) |
